The text below walks through data of ChEMBL document CHEMBL4715864, “Discovery of 2-(5-(quinolin-6-yl)-1,3,4-oxadiazol-2-yl)acetamide derivatives as novel PI3Kα inhibitors via docking-based virtual screening” (Bioorg Med Chem, 2021).

pIC50: −log10 of the molar value.

Test [1] has as its target Phosphatidylinositol 4,5-bisphosphate 3-kinase catalytic subunit gamma isoform (Homo sapiens, UniProt P48736). Description: Inhibition of PI3Kgamma (unknown origin) using PIP2 as substrate measured after 1 hr by ADP-glo plus luminescence assay. For orientation: ADP-Glo turns the ADP formed in a reaction into a luminescent signal.
The target of test [2] is Phosphatidylinositol 4,5-bisphosphate 3-kinase catalytic subunit beta isoform (Homo sapiens, UniProt P42338). The test can be described thus: Inhibition of PI3Kbeta (unknown origin) using PIP2 as substrate measured after 1 hr by ADP-glo plus luminescence assay.
Test [3] deals with T1, Phosphatidylinositol 4,5-bisphosphate 3-kinase catalytic subunit alpha isoform (Homo sapiens, UniProt P42336). The test can be described thus: Inhibition of PI3Kalpha (unknown origin) using PIP2 as substrate measured after 1 hr by ADP-glo plus luminescence assay.
Test [4] is filed under the species Homo sapiens. Description: Selectivity ratio of IC50 for PI3Kgamma (unknown origin) to IC50 for PI3Kalpha (unknown origin).
For test [5], the target named is T2, Phosphatidylinositol 4,5-bisphosphate 3-kinase catalytic subunit delta isoform (Homo sapiens, UniProt O00329).
T2 sequence (O00329 whole entry): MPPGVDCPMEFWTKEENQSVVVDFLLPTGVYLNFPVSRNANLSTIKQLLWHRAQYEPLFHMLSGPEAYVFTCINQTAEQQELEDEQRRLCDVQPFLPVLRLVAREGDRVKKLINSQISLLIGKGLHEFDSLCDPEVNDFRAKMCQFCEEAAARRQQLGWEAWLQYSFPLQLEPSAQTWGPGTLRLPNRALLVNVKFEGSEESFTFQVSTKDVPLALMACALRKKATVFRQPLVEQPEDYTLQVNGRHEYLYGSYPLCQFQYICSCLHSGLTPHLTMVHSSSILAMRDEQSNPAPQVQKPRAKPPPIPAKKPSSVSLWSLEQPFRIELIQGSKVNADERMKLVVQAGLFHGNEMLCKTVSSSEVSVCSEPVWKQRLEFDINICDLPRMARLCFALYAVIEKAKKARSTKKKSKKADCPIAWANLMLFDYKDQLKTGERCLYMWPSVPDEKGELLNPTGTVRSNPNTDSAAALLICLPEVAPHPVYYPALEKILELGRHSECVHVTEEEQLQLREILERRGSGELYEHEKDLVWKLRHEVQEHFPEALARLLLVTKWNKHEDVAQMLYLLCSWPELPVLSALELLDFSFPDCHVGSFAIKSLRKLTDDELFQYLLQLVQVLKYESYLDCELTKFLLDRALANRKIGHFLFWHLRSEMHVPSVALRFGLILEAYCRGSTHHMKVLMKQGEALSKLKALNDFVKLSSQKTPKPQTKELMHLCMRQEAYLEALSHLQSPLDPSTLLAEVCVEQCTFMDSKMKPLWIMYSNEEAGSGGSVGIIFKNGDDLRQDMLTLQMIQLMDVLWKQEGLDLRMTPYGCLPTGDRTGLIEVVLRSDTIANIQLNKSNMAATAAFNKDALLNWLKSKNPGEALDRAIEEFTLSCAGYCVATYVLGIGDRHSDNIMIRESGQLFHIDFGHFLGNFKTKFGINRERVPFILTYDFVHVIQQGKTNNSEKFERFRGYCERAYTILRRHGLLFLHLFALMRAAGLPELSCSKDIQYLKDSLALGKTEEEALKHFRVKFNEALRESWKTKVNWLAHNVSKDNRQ
Description: Inhibition of PI3Kdelta (unknown origin) using PIP2 as substrate measured after 1 hr by ADP-glo plus luminescence assay.

Test [6] addresses T1, Phosphatidylinositol 4,5-bisphosphate 3-kinase catalytic subunit alpha isoform. Description: Inhibition of PI3Kalpha (unknown origin) assessed as inhibition rate using PIP2 as substrate at 10 uM measured after 1 hr by ADP-glo plus luminescence assay.

T1 sequence (P42336 whole entry, canonical isoform): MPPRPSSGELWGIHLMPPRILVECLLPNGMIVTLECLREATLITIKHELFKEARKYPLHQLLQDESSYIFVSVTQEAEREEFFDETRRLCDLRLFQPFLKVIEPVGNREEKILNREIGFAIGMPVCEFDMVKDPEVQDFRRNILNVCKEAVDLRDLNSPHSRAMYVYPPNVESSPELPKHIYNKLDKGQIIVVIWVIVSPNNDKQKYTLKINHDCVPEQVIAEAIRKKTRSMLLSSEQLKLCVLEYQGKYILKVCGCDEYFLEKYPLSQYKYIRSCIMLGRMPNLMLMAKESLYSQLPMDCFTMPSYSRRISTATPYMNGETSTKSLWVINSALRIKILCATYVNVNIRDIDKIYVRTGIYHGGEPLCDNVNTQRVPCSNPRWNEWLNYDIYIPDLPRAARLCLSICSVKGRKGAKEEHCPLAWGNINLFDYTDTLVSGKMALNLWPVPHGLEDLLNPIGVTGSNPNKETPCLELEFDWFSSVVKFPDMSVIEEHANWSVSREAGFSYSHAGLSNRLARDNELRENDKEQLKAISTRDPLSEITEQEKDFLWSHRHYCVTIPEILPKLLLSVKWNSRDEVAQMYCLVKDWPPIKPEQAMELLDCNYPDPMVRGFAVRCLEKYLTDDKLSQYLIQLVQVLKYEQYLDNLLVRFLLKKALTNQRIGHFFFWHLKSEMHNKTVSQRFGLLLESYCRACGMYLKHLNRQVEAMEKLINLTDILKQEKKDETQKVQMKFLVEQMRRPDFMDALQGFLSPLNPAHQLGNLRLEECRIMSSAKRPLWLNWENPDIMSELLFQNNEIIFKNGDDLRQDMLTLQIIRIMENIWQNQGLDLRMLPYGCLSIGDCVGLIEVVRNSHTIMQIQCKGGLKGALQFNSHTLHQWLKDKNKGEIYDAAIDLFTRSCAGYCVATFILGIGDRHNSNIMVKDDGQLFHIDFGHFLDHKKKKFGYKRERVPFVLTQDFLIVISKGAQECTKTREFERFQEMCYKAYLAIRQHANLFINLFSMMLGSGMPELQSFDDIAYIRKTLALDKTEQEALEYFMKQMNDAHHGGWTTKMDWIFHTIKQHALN
Sequence of Phosphatidylinositol 4,5-bisphosphate 3-kinase catalytic subunit beta isoform (P42338 whole entry, canonical isoform): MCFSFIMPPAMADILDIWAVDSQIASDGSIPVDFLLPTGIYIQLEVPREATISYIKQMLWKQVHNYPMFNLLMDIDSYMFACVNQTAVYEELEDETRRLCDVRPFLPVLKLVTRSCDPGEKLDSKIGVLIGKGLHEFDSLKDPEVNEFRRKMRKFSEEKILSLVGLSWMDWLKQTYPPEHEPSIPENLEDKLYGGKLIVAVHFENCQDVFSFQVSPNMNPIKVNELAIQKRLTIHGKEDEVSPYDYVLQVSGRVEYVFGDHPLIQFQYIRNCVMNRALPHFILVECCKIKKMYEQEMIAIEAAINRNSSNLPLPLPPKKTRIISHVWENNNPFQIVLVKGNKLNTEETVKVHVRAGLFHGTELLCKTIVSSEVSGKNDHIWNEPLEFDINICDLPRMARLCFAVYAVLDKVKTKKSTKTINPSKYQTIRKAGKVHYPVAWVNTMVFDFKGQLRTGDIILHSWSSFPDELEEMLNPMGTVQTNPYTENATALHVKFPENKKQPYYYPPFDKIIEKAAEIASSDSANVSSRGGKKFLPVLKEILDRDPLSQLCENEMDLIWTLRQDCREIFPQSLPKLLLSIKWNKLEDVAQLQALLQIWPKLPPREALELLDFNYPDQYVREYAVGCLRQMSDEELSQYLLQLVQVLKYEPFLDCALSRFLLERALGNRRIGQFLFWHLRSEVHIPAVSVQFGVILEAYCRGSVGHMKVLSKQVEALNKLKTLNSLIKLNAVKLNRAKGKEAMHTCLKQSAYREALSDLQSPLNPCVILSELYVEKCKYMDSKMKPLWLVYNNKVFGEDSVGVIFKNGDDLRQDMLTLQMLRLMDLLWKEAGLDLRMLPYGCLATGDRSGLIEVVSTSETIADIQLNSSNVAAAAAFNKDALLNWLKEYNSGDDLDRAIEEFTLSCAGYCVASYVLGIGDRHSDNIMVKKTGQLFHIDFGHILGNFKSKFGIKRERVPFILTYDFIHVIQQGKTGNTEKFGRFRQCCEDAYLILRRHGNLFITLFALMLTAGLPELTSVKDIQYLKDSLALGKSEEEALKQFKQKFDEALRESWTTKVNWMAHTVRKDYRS
Sequence of Phosphatidylinositol 4,5-bisphosphate 3-kinase catalytic subunit gamma isoform (P48736 whole entry, canonical isoform): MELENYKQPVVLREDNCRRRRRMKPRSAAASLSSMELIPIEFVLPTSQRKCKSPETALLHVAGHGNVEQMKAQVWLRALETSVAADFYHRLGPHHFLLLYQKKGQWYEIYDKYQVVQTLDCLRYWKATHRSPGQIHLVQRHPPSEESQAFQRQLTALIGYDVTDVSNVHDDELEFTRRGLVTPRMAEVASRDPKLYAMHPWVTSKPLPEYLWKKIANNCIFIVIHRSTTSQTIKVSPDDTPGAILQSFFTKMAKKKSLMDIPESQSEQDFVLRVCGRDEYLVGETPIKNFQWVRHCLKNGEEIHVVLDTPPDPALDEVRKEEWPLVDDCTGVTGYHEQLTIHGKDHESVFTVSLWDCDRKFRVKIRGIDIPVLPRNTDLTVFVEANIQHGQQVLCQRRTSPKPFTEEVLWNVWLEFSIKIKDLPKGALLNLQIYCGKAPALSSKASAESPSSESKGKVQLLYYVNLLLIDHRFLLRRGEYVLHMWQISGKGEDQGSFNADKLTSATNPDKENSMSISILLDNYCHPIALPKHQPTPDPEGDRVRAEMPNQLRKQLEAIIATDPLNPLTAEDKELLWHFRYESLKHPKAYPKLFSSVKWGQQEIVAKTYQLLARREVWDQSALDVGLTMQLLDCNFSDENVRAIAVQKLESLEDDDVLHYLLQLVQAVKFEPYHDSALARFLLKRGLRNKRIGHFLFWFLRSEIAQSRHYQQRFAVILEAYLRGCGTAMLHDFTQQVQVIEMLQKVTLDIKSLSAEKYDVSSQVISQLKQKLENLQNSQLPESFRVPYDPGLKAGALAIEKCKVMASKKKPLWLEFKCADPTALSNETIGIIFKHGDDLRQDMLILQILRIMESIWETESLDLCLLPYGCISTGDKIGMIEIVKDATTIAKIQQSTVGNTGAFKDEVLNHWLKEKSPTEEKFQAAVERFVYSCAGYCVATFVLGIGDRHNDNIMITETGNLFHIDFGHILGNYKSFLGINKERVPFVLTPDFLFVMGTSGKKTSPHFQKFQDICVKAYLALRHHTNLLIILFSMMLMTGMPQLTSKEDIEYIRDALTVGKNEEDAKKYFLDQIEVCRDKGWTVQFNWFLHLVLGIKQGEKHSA

As usually defined, the pIC50 is the negative decadic logarithm of the IC50, by convention in mol/L. For `COc1ccc(CNC(=O)Cc2nnc(-c3ccc4ncccc4c3)o2)cc1OC`, the pIC50 was 3.82 in test [1], 5.39 in test [2], 5.12 in test [3] and 4.85 in test [5]. Moreover, the Ratio IC50 in test [4] worked out at 20.

Turning to `O=C(Cc1nnc(-c2ccc3c(c2)OCO3)o1)NCc1ccc(F)cc1`, in test [3], the pIC50 was less than 3.70.

For the compound `COc1ccc(NC(=O)Cc2nnc(-c3ccc4ncccc4c3)o2)cc1OC`, the pIC50 in test [3] was less than 3.70.

Usually inhibition stands for the drop in the measured response relative to a control, in per cent. Regarding `O=C(Cc1nnc(-c2ccc3ncccc3c2)o1)NCc1ccc(F)cc1Cl`, the inhibition in test [6] worked out at 55.5%. In addition, the pIC50 in test [3] is 4.81.

For the compound `O=C(Cc1nnc(-c2ccc3ncccc3c2)o1)Nc1cccc(C(F)(F)F)c1`, in test [3], the pIC50 is less than 3.70.

As for `N#Cc1cc(NC(=O)Cc2nnc(-c3ccc4ncccc4c3)o2)ccc1F`, the pIC50 in test [3] is less than 3.70.

Regarding `O=C(Cc1nnc(-c2ccc3ncccc3c2)o1)N1CCN(c2ccccc2)CC1`, the pIC50 in test [3] was less than 3.70.

Regarding `O=C(Cc1nnc(-c2ccc3ncccc3c2)o1)Nc1ccc(OC(F)(F)F)cc1`, the pIC50 in test [3] is less than 3.70.

Regarding `COc1ccccc1CNC(=O)Cc1nnc(-c2ccc3ncccc3c2)o1`, in test [3], the pIC50 is 4.74.

Consider `CC(C)NC(=O)CSc1nc(-c2ccc3c(c2)OCO3)nc2cc(=O)[nH]n12`, for which, in test [6], the inhibition was found to be 71.9%. In test [3], the pIC50 was 4.77.

For `O=C(Cc1nnc(-c2ccc3ncccc3c2)o1)NCCc1ccc(Cl)cc1`, the pIC50 is 5.01 in test [1], 5.59 in test [2], 5.18 in test [3] and 4.78 in test [5].

As for `O=C(Cc1nnc(-c2ccc3ncccc3c2)o1)NCCc1ccccc1`, the inhibition in test [6] worked out at 73.8%. For the same compound, the pIC50 in test [3] was 4.53.

For `O=C(Cc1nnc(-c2ccccn2)o1)NCc1ccc(F)cc1Cl`, in test [3], the pIC50 is less than 3.70.
